Experimental data: US12264146B2, “Rho kinase inhibitor, method for preparing same and uses thereof” (BEIJING INCREASE INNOVATIVE DRUG CO., LTD., priority 2018, dated 2025)

How the values were obtained:
[1] = Toxicity test on endothelial cells EA.hy926, CCK-8 cell viability; format: cell-based; conditions: human, 1000~0.32 μmol/L, 5-fold dilution, read-out: IC50 of Test compound (cytotoxicity on EA.hy926 cells)
Description: In this test example, 31 groups, i.e., Groups 1 to 31, were set, in which Group 1 was a blank control group, Group 2 was a normal control group, Group 3 was a positive control group, and Groups 4 to 31 were test groups of the compounds of the present application. The specific test operation comprised: 100 μL of endothelial cells EA.hy926 (purchased from Suzhou Beina Chuanglian Biotechnology Co., Ltd.) with a density of 5×10^4 was added to each well of a 96-well plate, and transferred to an incubator at 37° C. with 5% CO2 and saturated humidity conditions and cultured for 24 hours, 100 μL of 2× the test compound solution prepared and diluted with DMEM medium containing 10% fetal bovine serum was added, in which the test compound added in the positive control group was Fasudil hydrochloride (purchased from Beijing Sihuan Pharmaceutical Co., Ltd., SFDA approval number H20173349) solution with different concentrations, an equal volume of DMEM medium was added in the blank control group, an equal volume of PBS buffer was added in the normal control group, and a duplicate well was set for each concentration point. After adding the test compound, the culture was continued in the incubator for 24 hours, then 20 μL of CCK-8 detection solution (purchased from Beijing Solarbio Science & Technology Co., Ltd., Cat. No. CA1210) was added to each well, interacted at 37° C. for 2.5 hours, shaken and mixed well, and then the absorbance value at 450 nm was detected.
OD values were detected, and the cell viability values of test groups of different concentrations were calculated according to the cell viability calculation formula as follows: Cell viability=(Atest group−Ablank control)/(Anormal control−Ablank control)*100%
wherein A represented absorbance value at 450 nm.
Prism6.0 was used to obtain the inhibitor concentration-viability curve and to calculate the IC50 of the test compound, the correlation coefficient R^2>0.99; the inhibitor concentration-viability curves of Fasudil hydrochloride, R-YK1601, R-YK1603, R-YK1606, R-YK1607, R-YK1610 were shown in FIGS. 1 to 6, in which the abscissa was the logarithm on base 10 of the concentration of the test compound, and the ordinate was the cell activity (i.e., cell viability).

[2] = test system: nitric oxide (NO); assay: Synthesis and secretion of nitric oxide (NO) in EA.Hy926 endothelial cells, NO detection kit; format: cell-based; conditions: EA.Hy926 cell supernatant, 24 h
Description: (§1) Commercially available cytokine kits were used to detect the effects of the compounds of the present application on vascular endothelium-derived contracting factor endothelin, vascular endothelium-derived relaxing factor endothelial nitric oxide synthase, nitric oxide, and prostacyclin factor. The detection was performed according to the kit instructions. When testing the effect of the compound of the present application on cytokines, a normal control group, a fasudil hydrochloride group, and high-, medium- and low-dose groups of the compounds of the present application were set up for testing. The fasudil hydrochloride used in this test example was purchased from Beijing Sihuan Pharmaceutical Co., Ltd., with the SFDA approval number of H20173349. The EA.Hy926 cells used in this test example were purchased from Suzhou Beina Chuanglian Biotechnology Co., Ltd.
EA.Hy926 cells were inoculated in a 24-well plate at 5×10^5 cells/mL, 400 μL per well, and cultured adherently for 18 hours, then the supernatant was discarded, the test compound prepared in DMEM medium was added, and an equal volume of DMEM medium was added in the normal control group, then the cells was cultured for 24 h in incubator, and then the cell supernatant was collected and detected according to the instructions of NO detection kit (purchased from Beyotime Institute of Biotechnology, Cat. No. 062617171017), and the detection results were shown in Table 5.

[3] = test system: subarachnoid hemorrhage in rats; assay: Rat subarachnoid hemorrhage (SAH) model by intravascular puncture, Sugawara bleeding score; format: in vivo; parameters: dose or concentration left out as unconfirmed; conditions: tail vein injection, 2 administrations 4 h apart, scored 24 h after first administration (Sugawara)
Description: Rat subarachnoid hemorrhage (SAH) model was built by intravascular puncture. After being weighed, the rats were anesthetized with sodium pentobarbital (50 mg/kg) or chloral hydrate (300 mg/kg) by intraperitoneal injection, then fixed on their back and maintained the animal's body temperature at about 37° C. The rats' neck skin was shaved for surgery, a median incision was made on the neck, and muscle and fascia were separated along the inner edge of stemocleidomastoid muscle to expose the main and bifurcation of right common carotid artery, and expose the external and internal carotid arteries.
The bifurcation of internal carotid artery was gently clamped with ophthalmic forceps, the bifurcation of the internal carotid artery and the external carotid artery was pierced with a 6-gauge syringe needle, the ophthalmic forceps holding the bifurcation of internal carotid artery was slightly loosen, and No. 3 fishing thread was used to perform a puncture at the bleeding point, the ophthalmic forceps on the internal carotid artery was loosen, and the fishing thread was inserted into skull. […] After staying for 15 seconds, the thread for puncture was completely removed, and the skin was sutured after compression to stop the bleeding. 1.6 million units of penicillin potassium (400,000 units/ml, 0.2 ml/rat) was intramuscularly injected to avoid wound infection. For the sham operation group, the thread for puncture was removed when resistance was felt without piercing the bifurcation of the anterior cerebral artery and the middle cerebral artery, while the remaining operation steps were the same as the model group. After the operation, the rats were transferred to a thermal insulation blanket, then transferred to a squirrel cage when they were basically awake, and kept normally.
In this test experimental, 32 groups were set, i.e., Groups 1 to 32, in which Group 1 was a normal control group (healthy rats), Group 2 was a sham operation control group (not modeling by puncture), Group 3 was a model control group (modeling by puncture, administrated with normal saline), Group 4 was a positive control group (modeling by puncture, administrated with fasudil hydrochloride injection), and Groups 5 to 32 were test groups of the compounds of the present application (modeling by puncture, respectively administrated with the compounds of the present application); and there were 8 animals (purchased from SPF (Beijing) Biotechnology Co., Ltd., the certificate number was SYXK (Beijing) 2016-0002) in each group, half of them were female and half of them were male. The animals were subjected to fasting for 12 to 18 hours without prohibition of drinking water before modeling. […] The rats were euthanized 24 h after the first administration, and the brains were taken. According to Sugawara's method (Reference: Sugawara T, Ayer R, Jadhav V, et al. A new grading system evaluating bleeding scale in filament perforation subarachnoid hemorrhage rat model. J Neurosci Methods. 2008, 167(2):327-34), the subarachnoid hemorrhage amounts were scored, and the scoring results were as follows: […]

[4] = test system: endothelial nitric oxide synthase (eNOS); assay: Endothelial nitric oxide synthase (eNOS) in EA.Hy926 endothelial cells, detection kit; format: cell-based; conditions: EA.Hy926 cell supernatant, 24 h
Description: as §1
Detection conditions: EA.Hy926 cells were inoculated at 1×10^5 […] in a 96-well plate, 100 μL per well, and cultured adherently for 24 hours, then the test compound prepared with DMEM medium was added, the normal control group was added with an equal volume of DMEM medium, then the cells were cultured for 24 hours at 37° C., and then the cell supernatant was taken and placed in an EP tube, and centrifuged at 3000 r/min and 4° C. for 15 minutes, the resulting supernatant was transferred to a new EP tube, diluted 3 times, and detected according to the instruction of eNOs detection kit (purchased from Wuhan Elabscience Biotechnology Co., Ltd., Cat. No. AK0017OCT12013), and the detection results were shown in Table 4.

SMILES	IC50 at 24 h [1] [µM]	nitric oxide secretion in endothelial cells: Detection result of test compound at low dose (0.4 μM) [2] [μm]	nitric oxide secretion in endothelial cells: Detection result of test compound at medium dose (2 μM) [2] [μm]	nitric oxide secretion in endothelial cells: Detection result of test compound at high dose (10 μM) [2] [μm]	Cerebral hemorrhage volume score (x ± s) [3]	expression of endothelial nitric oxide synthase in endothelial cells: Detection result of test compound at low dose (0.4 μM) [4] [pg/mL]	expression of endothelial nitric oxide synthase in endothelial cells: Detection result of test compound at medium dose (2 μM) [4] [pg/mL]	expression of endothelial nitric oxide synthase in endothelial cells: Detection result of test compound at high dose (10 μM) [4] [pg/mL]
COc1ncc(F)c2c(S(=O)(=O)N3CCCNC[C@H]3C)cccc12 [Compound R-YK1605, (R)-4-fluoro-1-methoxy-5-((2-methyl-1,4-diazacycloheptan-1-yl)sulfonyl)isoquinoline]	184	0.950 ± 0.134	1.023 ± 0.006	1.122 ± 0.006	12.95 ± 2.04	2752.53 ± 779.12	2261.58 ± 253.77	2105.70 ± 87.14
C[C@@H]1CNCCCN1S(=O)(=O)c1cccc2c(O)ncc(Cl)c12 [Compound R-YK1606, (R)-4-chloro-5-((2-methyl-1,4-diazacycloheptan-1-yl)sulfonyl)isoquinolin-1-ol]	181	1.131 ± 0.019	1.009 ± 0.102	1.158 ± 0.223	12.69 ± 2.01	2974.79 ± 361.75	2400.67 ± 226.73	2286.01 ± 95.04
CCc1cnc(O)c2cccc(S(=O)(=O)N3CCCNC[C@H]3C)c12 [Compound R-YK1607, (R)-4-ethyl-5-((2-methyl-1,4-diazacycloheptan-1-yl)sulfonyl)isoquinolin-1-ol]	230	0.898 ± 0.006	0.924 ± 0.032	1.010 ± 0.006	12.12 ± 2.06	2426.66 ± 220.56	2239.70 ± 249.84	2298.44 ± 265.33
O=S(=O)(c1cccc2cnccc12)N1CCCNC[C@H]1C1CC1 [Compound R-YK1608, (R)-5-((2-cyclopropyl-1,4-diazacycloheptan-1-yl)sulfonyl)isoquinoline]	165	0.918 ± 0.008	0.984 ± 0.042	1.105 ± 0.007	13.18 ± 1.97	2697.85 ± 284.81	2344.00 ± 293.66	2269.45 ± 134.54
CC(C)[C@@H]1CNCCCN1S(=O)(=O)c1cccc2c(O)nccc12 [Compound R-YK1609, (R)-5-((2-isopropyl-1,4-diazacycloheptan-1-yl)sulfonyl)isoquinolin-1-ol]	327	0.978 ± 0.028	1.014 ± 0.051	1.115 ± 0.006	12.27 ± 2.02	2728.44 ± 257.58	2375.91 ± 287.28	2235.87 ± 213.65
